Activity calls are given as the source filed them.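 How the source made its calls: active means fitted curve rises past 0.47 at a concentration no higher than the top valid tested dose; inconclusive means flat curve at a moderate level, or poor fit; inactive means the rest, including signal moving the wrong way.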
tested on: compound-only thermal shift, SYPRO orange fluorescence, no protein; test: compound-only thermal shift interference, dose response, artefact control for FGF22 binder project, biophysical, SYPRO orange, qPCR instrument, dry powder samples (AID 743039); settings: at 0.16 µM

| SMILES | thermal shift signal, higher = interference |
| --- | --- |
| CCc1cc(-c2[nH]ncc2-c2ccc3c(c2)OCCO3)c(O)cc1O | -0.049% (inactive) |
| CCN1C/C(=C/c2cccs2)c2nc3ccccc3c(C(=O)O)c2C1 | 0.048% (inactive) |
| CCOc1cccc(C(=O)Nc2ccc3[nH]ncc3c2)c1 | -0.066% (inactive) |
| COC(=O)C1=C(CS(=O)(=O)c2cc(OC)ccc2OC)NC(=O)NC1c1ccc(O)c(OC)c1 (stereo not given) | -0.182% (inactive) |
| Cc1cc(NC(=O)Nc2ccc3c(ccn3C)c2)sn1 | 0.052% (inactive) |
| O=C(N/N=C/c1c[nH]c2ccccc12)c1cccs1 | -0.182% (inactive) |
| O=C(Nc1cc(Cl)cc(Cl)c1)N[C@@H]1CC[C@@H](CCNS(=O)(=O)c2cccc(F)c2)O[C@H]1CO | 0.061% (inactive) |
| Cc1ccc(S(=O)(=O)N2C[C@H](O)COC[C@H]3O[C@H](CC(=O)NCc4ccc(Cl)c(Cl)c4)CC[C@@H]32)cc1 | 0.168% (inactive) |
| Cc1ccc(OCCCC(=O)Nc2ccc(S(=O)(=O)N3CCOCC3)cc2)cc1 | -0.12% (inactive) |
| CSc1ccc(/C=N/NC(=O)c2ccc3nc[nH]c3c2)cc1 | 0.305% (inactive) |
| COc1ccc(-c2nc(-c3ccc(O)cc3O)cs2)cc1OC | 0.011% (inactive) |
| COc1cc(/C=N/NC(=O)c2cc3ccccc3[nH]2)ccc1O | -0.114% (inactive) |
| O=C(Nc1nccs1)C1CC(=O)N(c2ccc(F)cc2)C1 (stereo not given) | -0.148% (inactive) |
| O=C(N/N=C/c1ccc(C(F)(F)F)cc1)c1ccc(O)cc1 | -0.028% (inactive) |
| O=C(Nc1cc(Cl)cc(Cl)c1)N[C@@H]1CC[C@@H](CCNS(=O)(=O)c2cccc(F)c2)O[C@@H]1CO | 0.004% (inactive) |
| O=C(N/N=C/c1c[nH]c2ccccc12)c1ccc(O)c(O)c1 | 0.065% (inactive) |
| O=S(=O)(Nc1nnc(C(F)(F)F)s1)c1ccc(Cl)cc1 | -0.081% (inactive) |
| CCN1C(=O)C(CC(=O)Nc2ccc(F)cc2)N(Cc2ccc3c(c2)OCO3)C1=S (stereo not given) | -0.165% (inactive) |
| CC(C)c1c(C(=O)N/N=C/c2c[nH]c3ccccc23)nnn1-c1nonc1N | -0.009% (inactive) |
| CCc1cc(-c2n[nH]c(C)c2-c2ccc3c(c2)OCCO3)c(O)cc1O | -0.093% (inactive) |
| O=C(Nc1ccc(S(=O)(=O)N2CCCC2)cc1)c1cccs1 | -0.157% (inactive) |
| CN(Cc1c(C(=O)N/N=C/c2ccc(O)cc2)nnn1-c1nonc1N)c1ccccc1 | -0.045% (inactive) |
| O=C(Nc1ccc(S(=O)(=O)N2CCOCC2)cc1)c1ccc(F)cc1 | -0.05% (inactive) |
| Cc1cc(C(=O)N/N=C/c2c[nH]c3ccccc23)cs1 | 0.145% (inactive) |
| Cc1ccc(S(=O)(=O)N2C[C@@H](O)COC[C@@H]3O[C@@H](CC(=O)NCc4ccc(Cl)c(Cl)c4)CC[C@H]32)cc1 | 0.045% (inactive) |
| CCCNC(=O)COC(=O)c1ccccc1C(=O)N(C)C1CCCCC1 | -0.157% (inactive) |
| O=C(C[C@H]1CC[C@@H]2[C@H](COC[C@H](O)CN2S(=O)(=O)c2cccc(Cl)c2)O1)Nc1ccccc1 | -0.063% (inactive) |
| O=S1(=O)N=C(N(Cc2cccs2)c2ccc(O)cc2)c2ccccc21 | 0.057% (inactive) |
| COc1ccc(Nc2nc3ccc(OC)cc3s2)cc1 | 0.188% (inactive) |
| Cc1[nH]c2ccc(C(=O)OCC(=O)Nc3cccc(S(N)(=O)=O)c3)cc2c1C | -0.322% (inactive) |

The next lines start with the values.

| thermal shift signal, higher = interference | SMILES |
| --- | --- |
| -0.209% (inactive) | O=C(Nc1ccc(S(=O)(=O)N2CCCC2)cc1)c1ccccc1 |
| -0.178% (inactive) | Clc1ccc(Nc2ccc(NCc3ccccc3)nn2)cc1 |
| 0.069% (inactive) | O=C(N/N=C/c1c[nH]c2ccccc12)c1cccc(Cl)c1 |
| 0.097% (inactive) | COC(=O)C[C@H]1CC[C@@H]2[C@@H](COc3ccc(NC(=O)Nc4cccc(C#N)c4)cc3C(=O)N2C)O1 |
| 0.048% (inactive) | O=C(NCCc1c[nH]c2ccccc12)c1ccc(Cl)cc1 |
| -0.227% (inactive) | CC(=O)Nc1cccc(NC(=O)c2ccc3[nH]c(C)c(C)c3c2)c1 |
| 0.235% (inactive) | CC(=O)c1ccc(NC(=O)Nc2cccnc2)cc1 |
| -0.043% (inactive) | O=C(Nc1ccc(Cl)cc1)N[C@@H]1CC[C@@H](CCNS(=O)(=O)c2ccccc2F)O[C@H]1CO |
| 0.019% (inactive) | CC(=O)Nc1cccc(C(=O)N/N=C/c2c[nH]c3ccccc23)c1 |
| 0.355% (inactive) | O=C(N/N=C/c1c[nH]c2ccccc12)c1cccc(O)c1 |
| -0.026% (inactive) | O=C(N/N=C/c1cccc(Oc2ccccc2)c1)c1cccc(O)c1 |
| -0.057% (inactive) | Cc1ccn(-c2ccc(NC(=O)c3cccs3)cc2)n1 |
| 0.145% (inactive) | Nc1cccc(-c2nc3ccc(C(=O)c4ccccc4)cc3[nH]2)c1 |
| -0.005% (inactive) | COc1ccc(C)cc1NS(=O)(=O)c1ccc(NS(=O)(=O)c2ccc(NC(C)=O)cc2)cc1 |
| 0.052% (inactive) | CCNC(=O)C[C@@H]1CC[C@H]2[C@H](COc3ccc(NC(=O)Nc4ccc(Cl)cc4)cc3C(=O)N2C)O1 |
| 0.042% (inactive) | Nc1ccc(C(=O)N/N=C/c2c[nH]c3ccccc23)cc1 |
| 0.246% (inactive) | CC(=O)Nc1ccc(NC(=O)Nc2ccccc2)cc1 |
| -0.148% (inactive) | Cc1[nH]c2ccccc2c1C(=O)NS(=O)(=O)Nc1ccc(Cl)cc1 |
| 0.237% (inactive) | COC(=O)C[C@H]1CC[C@@H]2[C@@H](COc3ccc(NC(=O)Nc4ccc(C#N)cc4)cc3C(=O)N2C)O1 |
| 0.188% (inactive) | O=C(O)Cc1ccc(NC(=O)c2ccc(Cl)c(Cl)c2)cc1 |

From PubChem BioAssay AID743039 (Broad Institute, 2013)
